The results in this text go back to US9403839B2, “Pyran-spirocyclic piperidine amides as modulators of ion channels” (Vertex Pharmaceuticals Incorporated, priority 2012, dated 2016).

The structures appear in SMILES notation. Bounds are passed on as bounds.

Chain of human NaV subtype, like NaV 1.7 (Q15858 whole entry): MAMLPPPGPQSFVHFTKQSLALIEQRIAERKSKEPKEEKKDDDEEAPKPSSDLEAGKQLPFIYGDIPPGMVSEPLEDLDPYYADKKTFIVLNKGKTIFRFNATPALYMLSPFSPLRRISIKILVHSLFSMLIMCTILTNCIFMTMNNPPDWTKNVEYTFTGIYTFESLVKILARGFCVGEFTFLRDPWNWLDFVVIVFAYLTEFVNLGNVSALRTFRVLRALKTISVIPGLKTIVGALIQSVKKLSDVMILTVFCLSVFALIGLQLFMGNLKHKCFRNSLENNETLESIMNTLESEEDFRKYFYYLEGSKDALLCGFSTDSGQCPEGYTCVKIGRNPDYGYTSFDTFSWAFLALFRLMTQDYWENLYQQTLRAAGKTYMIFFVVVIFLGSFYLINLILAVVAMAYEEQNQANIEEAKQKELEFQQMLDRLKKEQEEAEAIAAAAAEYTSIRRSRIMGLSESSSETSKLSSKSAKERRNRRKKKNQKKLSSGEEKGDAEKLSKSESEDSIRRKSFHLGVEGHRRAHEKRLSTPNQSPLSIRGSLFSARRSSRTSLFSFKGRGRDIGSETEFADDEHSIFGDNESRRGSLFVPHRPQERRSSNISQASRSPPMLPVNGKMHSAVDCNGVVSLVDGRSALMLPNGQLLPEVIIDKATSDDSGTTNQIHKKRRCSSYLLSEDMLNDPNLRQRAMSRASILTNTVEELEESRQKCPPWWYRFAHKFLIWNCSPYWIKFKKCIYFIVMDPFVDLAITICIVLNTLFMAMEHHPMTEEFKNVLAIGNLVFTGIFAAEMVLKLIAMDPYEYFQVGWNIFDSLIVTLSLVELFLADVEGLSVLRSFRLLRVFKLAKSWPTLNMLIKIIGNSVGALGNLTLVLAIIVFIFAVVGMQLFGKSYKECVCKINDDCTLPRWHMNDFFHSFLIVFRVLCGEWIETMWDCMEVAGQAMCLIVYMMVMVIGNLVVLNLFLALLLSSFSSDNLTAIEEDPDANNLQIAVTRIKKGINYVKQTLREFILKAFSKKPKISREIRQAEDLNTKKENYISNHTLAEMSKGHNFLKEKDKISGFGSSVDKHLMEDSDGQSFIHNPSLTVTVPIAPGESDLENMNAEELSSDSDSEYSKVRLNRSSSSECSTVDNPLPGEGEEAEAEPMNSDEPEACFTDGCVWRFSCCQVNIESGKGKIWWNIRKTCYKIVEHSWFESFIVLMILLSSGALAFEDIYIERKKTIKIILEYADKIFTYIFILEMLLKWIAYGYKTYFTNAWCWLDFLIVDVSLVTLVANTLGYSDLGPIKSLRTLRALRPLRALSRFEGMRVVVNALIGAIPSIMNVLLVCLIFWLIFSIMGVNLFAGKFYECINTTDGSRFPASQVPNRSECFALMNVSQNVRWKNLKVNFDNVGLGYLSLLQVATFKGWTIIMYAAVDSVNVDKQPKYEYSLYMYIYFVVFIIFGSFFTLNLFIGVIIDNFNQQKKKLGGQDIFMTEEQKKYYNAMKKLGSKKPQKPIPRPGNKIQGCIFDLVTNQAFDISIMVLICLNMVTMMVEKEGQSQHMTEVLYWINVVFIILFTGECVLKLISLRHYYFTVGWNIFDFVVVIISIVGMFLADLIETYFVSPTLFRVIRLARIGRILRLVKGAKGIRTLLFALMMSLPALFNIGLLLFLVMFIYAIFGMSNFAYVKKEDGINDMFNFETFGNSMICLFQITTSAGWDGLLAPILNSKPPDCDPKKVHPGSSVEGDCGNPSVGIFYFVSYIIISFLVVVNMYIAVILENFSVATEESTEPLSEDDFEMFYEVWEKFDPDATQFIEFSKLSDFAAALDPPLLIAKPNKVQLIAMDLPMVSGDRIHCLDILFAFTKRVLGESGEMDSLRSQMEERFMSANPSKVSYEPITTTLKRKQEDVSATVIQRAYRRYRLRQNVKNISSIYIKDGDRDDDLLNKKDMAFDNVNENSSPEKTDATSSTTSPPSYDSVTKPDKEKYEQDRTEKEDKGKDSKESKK

This experiment addresses human NaV subtype, like NaV 1.7 (Homo sapiens, UniProt Q15858). Briefly: E-VIPR optical membrane potential assay with electrical stimulation. In kind it is cell-based. To be noted: one or more sodium channels; assay and NaV subtype not specified for Table 3; read-out: IC50 Binned Activity Data. From the text: Assays for Detecting and Measuring NaV Inhibition Properties of Compound E-VIPR Optical Membrane Potential Assay Method with Electrical Stimulation
Sodium channels are voltage-dependent proteins that can be activated by inducing membrane voltage changes by applying electric fields. The electrical stimulation instrument and methods of use are described in Ion Channel Assay Methods PCT/US01/21652, herein incorporated by reference and are referred to as E-VIPR. The instrument comprises a microtiter plate handler, an optical system for exciting the coumarin dye while simultaneously recording the coumarin and oxonol emissions, a waveform generator, a current- or voltage-controlled amplifier, and a device for inserting electrodes in well. Under integrated computer control, this instrument passes user-programmed electrical stimulus protocols to cells within the wells of the microtiter plate.
24 hours before the assay on E-VIPR, HEK cells expressing human NaV subtype, like NaV 1.7, are seeded in 384-well poly-lysine coated plates at 15,000-20,000 cells per well. Other subtypes are performed in an analogous mode in a cell line expressing the NaV of interest. HEK cells are grown in media (exact composition is specific to each cell type and NaV subtype) supplemented with 10% FBS (Fetal Bovine Serum, qualified; GibcoBRL #16140-071) and 1% Pen-Strep (Penicillin-Streptomycin; GibcoBRL #15140-122). Cells are grown in vented cap flasks, in 90% humidity and 10% CO2, to 100% confluence. They are usually split by trypsinization 1:10 or 1:20, depending on scheduling needs, and grown for 2-3 days before the next split.
100 mg/mL Pluronic F-127 (Sigma #P2443), in dry DMSO
Compound Plates: 384-well round bottom plate, e.g. Corning 384-well Polypropylene Round Bottom #3656
Cell Plates: 384-well tissue culture treated plate, e.g. Greiner #781091-1B
Bath1 buffer. Glucose 10 mM (1.8 g/L), Magnesium Chloride (Anhydrous), 1 mM (0.095 g/L), Calcium Chloride, 2 mM (0.222 g/L), HEPES 10 mM (2.38 g/L), Potassium Chloride, 4.5 mM (0.335 g/L), Sodium Chloride 160 mM (9.35 g/L).
Hexyl Dye Solution: Bath1 Buffer+0.5% β-cyclodextrin (make this prior to use, Sigma #C4767), 8 μM CC2-DMPE+2.5 μM DiSBAC6(3). To make the solution Add volume of 10% Pluronic F127 stock equal to volumes of CC2-DMPE+DiSBAC6(3). The order of preparation is first mix Pluronic and CC2-DMPE, then add DiSBAC6(3) while vortexing, then add Bath1+β-Cyclodextrin.
1) Pre-spot compounds (in neat DMSO) into compound plates. Vehicle control (neat DMSO), the positive control (20 mM DMSO stock tetracaine, 125 μM final in assay) and test compounds are added to each well at 160× desired final concentration in neat DMSO. Final compound plate volume will be 80 μL (80-fold intermediate dilution from 1 μL DMSO spot; 160-fold final dilution after transfer to cell plate). Final DMSO concentration for all wells in assay is 0.625%.
2) Prepare Hexyl Dye Solution.
3) Prepare cell plates. On the day of the assay, medium is aspirated and cells are washed three times with 100 μL of Bath1 Solution, maintaining 25 μL residual volume in each well.
4) Dispense 25 μL per well of Hexyl Dye Solution into cell plates. Incubate for 20-35 minutes at room temp or ambient conditions.
5) Dispense 80 μL per well of Bath1 into compound plates. Acid Yellow-17 (1 mM) is added and Potassium Chloride can be altered from 4.5 to 20 mM depending on the NaV subtype and assay sensitivity.
6) Wash cell plates three times with 100 μL per well of Bath1, leaving 25 of residual volume. Then transfer 25 uL per well from Compound Plates to Cell Plates. Incubate for 20-35 minutes at room temp/ambient condition
7) Read Plate on E-VIPR. Use the current-controlled amplifier to deliver stimulation wave pulses for typically 9 seconds and a scan rate of 400 Hz. A pre-stimulus recording is performed for 0.5 seconds to obtain the un-stimulated intensities baseline. […]
Regarding `CCCOC1CC(c2cncs2)OC2(CCN(C(=O)c3ccc(OC(C)C)c(C)c3)CC2)C1` (stereo not drawn) [Compound 8], the IC50 is ≤ 2 µM. `CCOC1CC(c2cncs2)OC2(CCN(C(=O)c3ccc(OC(C)C)c(C)c3)CC2)C1` (stereo not drawn) [Compound 18]: the IC50 is ≤ 2 µM. With `CCOC1CC(c2ccccc2)OC2(CCN(C(=O)c3ccc(F)c(F)c3OC)CC2)C1` (stereo not drawn) [Compound 19], the IC50 was ≤ 2 µM. As for `CCOC1CC(c2ccccc2)OC2(CCN(C(=O)c3cc(C)c(OC(C)C)c(C)c3)CC2)C1` (stereo not drawn) [Compound 29], the IC50 is ≤ 2 µM. Consider `CCOC1CC(c2cccnc2)OC2(CCN(C(=O)c3ccc(C(C)(C)C)c(OC)c3)CC2)C1` (stereo not drawn) [Compound 37], for which the IC50 was ≤ 2 µM. In the case of `CCOC1CC(c2cccnc2)OC2(CCN(C(=O)c3ccc(OC(C)C)c(C)n3)CC2)C1` (stereo not drawn) [Compound 38], the IC50 fell in the range of 2 to 5 µM. Regarding `CCOC1CC(c2cccnc2)OC2(CCN(C(=O)c3ccc(OCCC(C)C)c(OC)c3)CC2)C1` (stereo not drawn) [Compound 39], the IC50 was ≤ 2 µM. Under `CCOC1CC(c2ccccc2)OC2(CCN(C(=O)c3ccc(COCC(F)(F)F)cc3)CC2)C1` (stereo not drawn) [Compound 46] stands ≤ 2 µM. `CCOC1CC(c2ccccc2)OC2(CCN(C(=O)c3ccc(C#N)c(C)n3)CC2)C1` (stereo not drawn) [Compound 50]: the IC50 was > 5 µM.

With `CCOC1CC(c2ccccc2)OC2(CCN(C(=O)c3cc(-c4ccc(C)cc4)on3)CC2)C1` (stereo not drawn) [Compound 53], the IC50 is 2 to 5 µM. `CCOC1CC(c2ccccc2)OC2(CCN(C(=O)c3ccc(OC)c(OC(F)F)c3)CC2)C1` (stereo not drawn) [Compound 62]: the IC50 is ≤ 2 µM.

Take `CCOC1CC(c2ccccc2)OC2(CCN(C(=O)c3cccnc3N3CCCCC3)CC2)C1` (stereo not drawn) [Compound 64]: the IC50 was ≤ 2 µM. Under `CCOc1ncc(Cl)cc1C(=O)N1CCC2(CC1)CC(OCC)CC(c1ccccc1)O2` (stereo not drawn) [Compound 68] stands 2 to 5 µM.

Consider `CCOC1CC(c2ccccc2)OC2(CCN(C(=O)c3ccc(N4CCCC4)nc3)CC2)C1` (stereo not drawn) [Compound 70], for which the IC50 was in the range of 2 to 5 µM. Consider `CCOC1CC(c2ccccc2)OC2(CCN(C(=O)c3cccnc3NC(C)C)CC2)C1` (stereo not drawn) [Compound 75], for which the IC50 is ≤ 2 µM. Regarding `CCOC1CC(c2ccccc2)OC2(CCN(C(=O)c3c[nH]c4ncccc34)CC2)C1` (stereo not drawn) [Compound 89], the IC50 was ≤ 2 µM.

In the case of `CCOC1CC(c2ccccc2)OC2(CCN(C(=O)c3ccc(N4CCOCC4)cc3)CC2)C1` (stereo not drawn) [Compound 93], the IC50 is ≤ 2 µM. In the case of `CCOC1CC(c2ccccc2)OC2(CCN(C(=O)c3cnc4ccccc4c3)CC2)C1` (stereo not drawn) [Compound 95] it was > 5 µM. For `CCOC1CC(c2ccccc2)OC2(CCN(C(=O)c3ccc(C)cc3F)CC2)C1` (stereo not drawn) [Compound 97], the IC50 is ≤ 2 µM. For the compound `CCOC1CC(c2ccccc2)OC2(CCN(C(=O)c3cccc(C)n3)CC2)C1` (stereo not drawn) [Compound 122], the IC50 was > 5 µM. As for `CCOC1CC(c2ccccc2)OC2(CCN(C(=O)c3ccc(OC(C)C)c(C#N)c3)CC2)C1` (stereo not drawn) [Compound 127], the IC50 is ≤ 2 µM.

With `CCOC1CC(c2ccccc2)OC2(CCN(C(=O)c3ccc(OC(F)F)c(OC)c3)CC2)C1` (stereo not drawn) [Compound 135], the IC50 is ≤ 2 µM. In the case of `CCOC1CC(c2ccccc2)OC2(CCN(C(=O)c3ccc(OC(C)(C)C)c(OC)c3)CC2)C1` (stereo not drawn) [Compound 137] it was ≤ 2 µM; in that of `CCOC1CC(c2ccccc2)OC2(CCN(C(=O)c3ccc(O[C@@H](C)CC)c(OC)c3)CC2)C1` (stereo partly drawn) [Compound 139], ≤ 2 µM. In the case of `CCOC1CC(c2ccccc2)OC2(CCN(C(=O)c3ccc(OC(C)C)c(Cl)c3)CC2)C1` (stereo not drawn) [Compound 171] it was ≤ 2 µM. Take `CCOC1CC(c2ccccc2)OC2(CCN(C(=O)c3ccc(C4(O)CCC4)cc3)CC2)C1` (stereo not drawn) [Compound 176]: the IC50 is ≤ 2 µM. In the case of `CCOC1CC(CC)OC2(CCN(C(=O)c3ccc(OC(C)C)c(C)c3)CC2)C1` (stereo not drawn) [Compound 194] it was 2 to 5 µM.

As a reminder, the IC50 is the point on the concentration scale where inhibition reaches its midpoint.
